Measurements taken from patent US11897868B2, “Heterocyclic inhibitors of PCSK9” (CARDIO THERAPEUTICS PTY LTD, priority 2017, dated 2024).

Target: T1, PCSK9 and the LDL receptor (Homo sapiens, UniProt Q8NBP7)
T1 construct: purchased CircuLex CY-8150
Test: CircuLex PCSK9-LDLR in vitro binding assay
Conditions: His-tagged PCSK9 wild type, 8 point concentration curves, absorbance 450 nm and 540 nm, read-out: Inhibition of PCSK9-LDLR binding
Procedure: Compounds were assayed for their ability to inhibit the binding between PCSK9 and the LDL receptor using a CircuLex PCSK9-LDLR in vitro binding assay kit (Catalog #CY-8150. The procedure employed the reagents and buffers included in the kit as follows.
88 μL of 1× reaction buffer were placed into each well. 5 μL of test compounds in 20% DMSO were added into each well. 10 mM solutions of test compounds in DMSO were diluted by 3-fold series to give 8 point concentration curves. The compounds were then diluted 20-fold with the reaction buffer. To each well was then added 7 μL of His-tagged PCSK9 wild type solution (1000 ng/mL) into each well. The plate was then covered with a plate sealer and incubated at room temperature for 3 hours, shaking at 300 rpm on an orbital microplate shaker. The test solutions were washed 4 times with 350 μL wash buffer. 100 μL of biotinylated anti-His-tag monoclonal antibody was added to each well. The plate was covered with a plate sealer, and incubated at room temperature for 1 hour, shaking at 300 rpm. The test solutions were washed 4 times with 350 μL wash buffer. 100 μL of HRP-conjugated streptavidin was added to each well. The plate was covered with a plate sealer, and incubated at room temperature for 20 min, shaking at 300 rpm.
The test solutions were washed 4 times with 350 μL wash buffer. 100 μL of substrate reagent were added into each well. The plate was covered with a plate sealer, and incubated at room temperature for 15 min, shaking at 300 rpm. Finally, 100 μL of the stop solution was added to each well in the same order as the previously added substrate reagent. Absorbance was measured at 450 nm and 540 nm and IC50 curves were plotted.

T1 sequence (Q8NBP7 153-692): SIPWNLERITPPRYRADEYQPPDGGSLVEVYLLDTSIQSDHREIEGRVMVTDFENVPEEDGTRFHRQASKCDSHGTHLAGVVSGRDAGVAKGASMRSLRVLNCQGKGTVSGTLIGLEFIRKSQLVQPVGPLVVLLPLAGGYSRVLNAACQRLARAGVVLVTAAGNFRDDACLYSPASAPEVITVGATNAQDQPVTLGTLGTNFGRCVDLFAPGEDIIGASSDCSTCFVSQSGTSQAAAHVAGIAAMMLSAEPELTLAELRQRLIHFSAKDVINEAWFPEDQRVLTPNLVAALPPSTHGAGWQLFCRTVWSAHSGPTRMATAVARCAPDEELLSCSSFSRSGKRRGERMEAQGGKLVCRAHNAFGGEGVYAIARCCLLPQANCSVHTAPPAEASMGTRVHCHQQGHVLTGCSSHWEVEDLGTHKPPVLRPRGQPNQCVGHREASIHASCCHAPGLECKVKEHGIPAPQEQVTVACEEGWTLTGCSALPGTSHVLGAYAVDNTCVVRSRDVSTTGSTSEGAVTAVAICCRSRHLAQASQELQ
T1 sequence (Q8NBP7 31-152 partner limits assumed): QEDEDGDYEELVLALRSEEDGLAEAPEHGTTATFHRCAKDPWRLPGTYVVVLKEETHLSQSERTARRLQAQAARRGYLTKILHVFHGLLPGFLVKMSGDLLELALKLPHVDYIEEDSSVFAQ

| SMILES | IC50 [µM] |
| --- | --- |
| CC(=O)Nc1ccnc(Nc2cc(C(=O)Nc3cc(-n4cnc(C)c4)cc(C(F)(F)F)c3)ccc2C)n1 [Example 16, 3-((4-acetamidopyrimidin-2-yl)amino)-4-methyl-N-(3-(4-methyl-1H-imidazol-1-yl)-5-(trifluoromethyl)phenyl)benzamide] | 10 to 100 |
| Cc1cn(-c2cc(NC(=O)c3ccc(C)c(Nc4nccc(-c5ccccc5)n4)c3)cc(N3CCN(C)CC3)c2)cn1 [Example 6, 4-methyl-N-(3-(4-methyl-1H-imidazol-1-yl)-5-(4-methylpiperazin-1-yl)phenyl)-3-((4-phenylpyrimidin-2-yl)amino)benzamide] | 0.1 to 1 |
| Cc1ccc(C(=O)Nc2cccc(N3CCN(C)CC3)c2)cc1Nc1nccc(-c2ccc(F)cc2)n1 [Example 31, 3-((4-(4-fluorophenyl)pyrimidin-2-yl)amino)-4-methyl-N-(3-(4-methylpiperazin-1-yl)phenyl)benzamide] | 1 to 10 |
| Cc1cn(-c2cc(CN3CCN(C)CC3)cc(NC(=O)c3ccc(C)c(Nc4nccc(-c5ccccc5)n4)c3)c2)cn1 [Example 7, 4-methyl-N-(3-(4-methyl-1H-imidazol-1-yl)-5-((4-methylpiperazin-1-yl)methyl)phenyl)-3-((4-phenylpyrimidin-2-yl)amino)benzamide] | 0.1 to 1 |
| Cc1cn(-c2cc(NC(=O)c3ccc(C)c(C(=O)c4cccc(C#N)c4)c3)cc(N3CCN(C)CC3)c2)cn1 [Example 28, 3-(3-cyanobenzoyl)-4-methyl-N-(3-(4-methyl-1H-imidazol-1-yl)-5-(4-methylpiperazin-1-yl)phenyl)benzamide] | 1 to 10 |
| Cc1cn(-c2cc(CCC(=O)O)cc(NC(=O)c3ccc(C)c(Nc4nccc(-c5ccccc5)n4)c3)c2)cn1 [Example 9, 3-(3-(4-methyl-1H-imidazol-1-yl)-5-(4-methyl-3-((4-phenylpyrimidin-2-yl)amino)benzamido)phenyl)propanoic Acid] | 1 to 10 |
| Cc1cn(-c2cc(NC(=O)c3ccc(C)c(Oc4ccccc4)c3)cc(C(F)(F)F)c2)cn1 [Example 13, 4-methyl-N-(3-(4-methyl-1H-imidazol-1-yl)-5-(trifluoromethyl)phenyl)-3-phenoxybenzamide] | 10 to 100 |
| Cc1cn(-c2cc(NC(=O)c3ccc(C)c(Nc4nccc(-c5ccccn5)n4)c3)cc(C(F)(F)F)c2)cn1 [Example 1, 4-methyl-N-(3-(4-methyl-1H-imidazol-1-yl)-5-(trifluoromethyl)phenyl)-3-((4-(pyridin-2-yl)pyrimidin-2-yl)amino)benzamide] | 10 to 100 |
| Cc1ccc(C(=O)Nc2cc(-n3cnc(C)c3)cc(C(F)(F)F)c2)cc1 [Example 12, 4-methyl-N-(3-(4-methyl-1H-imidazol-1-yl)-5-(trifluoromethyl)phenyl)benzamide] | 10 to 100 |
| Cc1cn(-c2cc(CN3CCCC[C@H]3C(=O)O)cc(NC(=O)c3ccc(C)c(Nc4nccc(-c5ccc(F)cc5)n4)c3)c2)cn1 [Example 20, (S)-1-(3-(3-((4-(4-fluorophenyl)pyrimidin-2-yl)amino)-4-methylbenzamido)-5-(4-methyl-1H-imidazol-1-yl)benzyl)piperidine-2-carboxylic Acid] | 10 to 100 |
| Cc1cn(-c2cc(NC(=O)c3ccc(C)c(Nc4nccc(-c5ccc(F)cc5)n4)c3)cc(N3CCOCC3)c2)cn1 [Example 23, 3-((4-(4-fluorophenyl)pyrimidin-2-yl)amino)-4-methyl-N-(3-(4-methyl-1H-imidazol-1-yl)-5-morpholinophenyl)benzamide] | 10 to 100 |
| Cc1cn(-c2cc(CN3CCCC[C@H]3C(N)=O)cc(NC(=O)c3ccc(C)c(Nc4nccc(-c5ccc(F)cc5)n4)c3)c2)cn1 [Example 21, (S)-1-(3-(3-((4-(4-fluorophenyl)pyrimidin-2-yl)amino)-4-methylbenzamido)-5-(4-methyl-1H-imidazol-1-yl)benzyl)piperidine-2-carboxamide] | 1 to 10 |
| Cc1cn(-c2cc(NC(=O)c3ccc(C)c(Nc4ncccn4)c3)cc(C(F)(F)F)c2)cn1 [Example 4, 4-methyl-N-(3-(4-methyl-1H-imidazol-1-yl)-5-(trifluoromethyl)phenyl)-3-(pyrimidin-2-ylamino)benzamide] | 10 to 100 |
| Cc1ccc(C(=O)Nc2cc(N3CCN(C)CC3)cc(-n3cnc(C)c3)c2)cc1 [Example 24, 4-methyl-N-(3-(4-methyl-1H-imidazol-1-yl)-5-(4-methylpiperazin-1-yl)phenyl)benzamide] | 10 to 100 |
| Cc1ccc(C(=O)Nc2cccc(C(F)(F)F)c2)cc1Nc1nccc(-c2cccnc2)n1 [Example 17, 4-methyl-3-((4-(pyridin-3-yl)pyrimidin-2-yl)amino)-N-(3-(trifluoromethyl)phenyl)benzamide] | > 100 |
| Cc1cn(-c2cc(/C=C/C(=O)O)cc(NC(=O)c3ccc(C)c(Nc4nccc(-c5ccccc5)n4)c3)c2)cn1 [Example 8, (E)-3-(3-(4-methyl-1H-imidazol-1-yl)-5-(4-methyl-3-((4-phenylpyrimidin-2-yl)amino)benzamido)phenyl)acrylic Acid] | 10 to 100 |
| Cc1cc(-c2cc(NC(=O)c3ccc(C)c(Nc4nccc(-c5ccc(F)cc5)n4)c3)cc(N3CCN(C)CC3)c2)on1 [Example 29, 3-((4-(4-fluorophenyl)pyrimidin-2-yl)amino)-4-methyl-N-(3-(3-methylisoxazol-5-yl)-5-(4-methylpiperazin-1-yl)phenyl)benzamide] | 10 to 100 |
| Cc1cn(-c2cc(NS(=O)(=O)c3ccc(C)c(Nc4nccc(-c5ccccc5)n4)c3)cc(C(F)(F)F)c2)cn1 [Example 15, 4-methyl-N-(3-(4-methyl-1H-imidazol-1-yl)-5-(trifluoromethyl)phenyl)-3-((4-phenylpyrimidin-2-yl)amino)benzenesulfonamide] | 10 to 100 |
| Cc1cn(-c2cc(NC(=O)c3ccc(C)c(Nc4nccc(-c5ccccc5)n4)c3)cc(C(F)(F)F)c2)cn1 [Example 3, 4-methyl-N-(3-(4-methyl-1H-imidazol-1-yl)-5-(trifluoromethyl)phenyl)-3-((4-phenylpyrimidin-2-yl)amino)benzamide] | 1 to 10 |
| Cc1cn(-c2cc(NC(=O)c3ccc(C)c(Nc4nccc(-c5ccccc5)n4)c3)cc(N3CCNCC3)c2)cn1 [Example 5, 4-methyl-N-(3-(4-methyl-1H-imidazol-1-yl)-5-(piperazin-1-yl)phenyl)-3-((4-phenylpyrimidin-2-yl)amino)benzamide] | 0.1 to 1 |
| Cc1cn(-c2cc(CN3CCC[C@H](N)C3)cc(NC(=O)c3ccc(C)c(Nc4nccc(-c5ccc(F)cc5)n4)c3)c2)cn1 [Example 19, (S)—N-(3-((3-aminopiperidin-1-yl)methyl)-5-(4-methyl-1H-imidazol-1-yl)phenyl)-3-((4-(4-fluorophenyl)pyrimidin-2-yl)amino)-4-methylbenzamide] | 0.1 to 1 |
| Cc1cn(-c2cc(N3C(=O)c4cc(C)c(Nc5nccc(-c6cccnc6)n5)cc4C3=O)cc(C(F)(F)F)c2)cn1 [Example 18, 5-methyl-2-(3-(4-methyl-1H-imidazol-1-yl)-5-(trifluoromethyl)phenyl)-6-((4-(pyridin-3-yl)pyrimidin-2-yl)amino)isoindoline-1,3-dione] | 1 to 10 |
| Cc1cn(-c2cc(CCS(N)(=O)=O)cc(NC(=O)c3ccc(C)c(Nc4nccc(-c5ccccc5)n4)c3)c2)cn1 [Example 10, 4-methyl-N-(3-(4-methyl-1H-imidazol-1-yl)-5-(2-sulfamoylethyl)phenyl)-3-((4-phenylpyrimidin-2-yl)amino)benzamide] | 10 to 100 |

Same assay, conditions: His-tagged PCSK9 wild type; 8 point concentration curves; absorbance 450 nm and 540 nm; IC50 curves

| SMILES | Inhibition of PCSK9-LDLR binding |
| --- | --- |
| Cc1cn(-c2cc(NS(=O)(=O)c3ccc(C)c(Nc4nccc(-c5ccc(F)cc5)n4)c3)cc(N3CCN(C)CC3)c2)cn1 [Example 22, 3-((4-(4-fluorophenyl)pyrimidin-2-yl)amino)-4-methyl-N-(3-(4-methyl-1H-imidazol-1-yl)-5-(4-methylpiperazin-1-yl)phenyl)benzenesulfonamide] | * (Starred values refer to levels of inhibition of binding by less than 35% at the highest concentration tested, due either to solubility limitations or dynamic range limitations of the assay.) |
| COCCN1CCN(c2cc(NC(=O)c3ccc(C)c(Oc4ccccc4)c3)cc(-n3cnc(C)c3)c2)CC1 [Example 26, N-(3-(4-(2-methoxyethyl)piperazin-1-yl)-5-(4-methyl-1H-imidazol-1-yl)phenyl)-4-methyl-3-phenoxybenzamide] | * (Starred values refer to levels of inhibition of binding by less than 35% at the highest concentration tested, due either to solubility limitations or dynamic range limitations of the assay.) |
| Cc1cn(-c2cc(NC(=O)c3ccc(C)c(Oc4ccccc4)c3)cc(N3CCN(C)CC3)c2)cn1 [Example 25, 4-methyl-N-(3-(4-methyl-1H-imidazol-1-yl)-5-(4-methylpiperazin-1-yl)phenyl)-3-phenoxybenzamide] | * (Starred values refer to levels of inhibition of binding by less than 35% at the highest concentration tested, due either to solubility limitations or dynamic range limitations of the assay.) |
